Results taken from ChEMBL document CHEMBL3885881, “DrugMatrix”.

Species on record: Rattus norvegicus
Experiment: DrugMatrix - Regimen: Daily Repeat
Assay type: toxicity, organism-based, Sprague-Dawley
Parameters: regimen Daily Repeat, gender Male, age 6-8 weeks
Conditions: in vivo, po, route oral GAVAGE, vehicle .5 % CMC; for ABSOLUTE BASOPHIL / ABSOLUTE EOSINOPHIL / ABSOLUTE LYMPHOCYTE / ABSOLUTE MONOCYTE / ABSOLUTE SEGMENTED NEUTROPHIL / BASOPHIL / EOSINOPHIL / ERYTHROCYTE COUNT / HEMATOCRIT / HEMOGLOBIN / LEUKOCYTE COUNT / LYMPHOCYTE / MEAN CORPUSCULAR HEMOGLOBIN / MEAN CORPUSCULAR HEMOGLOBIN CONCENTRATION / MEAN CORPUSCULAR VOLUME / MONOCYTE / NEUTROPHIL / NUCLEATED RED BLOOD CELLS / PLATELET COUNT: tissue Blood; for ALANINE AMINOTRANSFERASE / ALBUMIN / ALKALINE PHOSPHATASE / ASPARTATE AMINOTRANSFERASE / BLOOD UREA NITROGEN / CARBON DIOXIDE / CHLORIDE / CHOLESTEROL / CREATINE PHOSPHOKINASE / CREATININE / GLUCOSE / LACTATE DEHYDROGENASE / LIPASE / PHOSPHORUS / POTASSIUM / SODIUM / TOTAL BILIRUBIN / TOTAL PROTEIN / URIC ACID: tissue Plasma
[1] = 1200 mg/kg, 120 h, dose level High, time 5 day
[2] = […], 72 h, dose 3.3 mg/Kg, dose level Low, time 3 day
[3] = […], 120 h, dose 3.3 mg/Kg, dose level Low, time 5 day

CCC[C@@H]1C[C@@H](C(=O)N[C@@H]([C@H]2O[C@H](SC)[C@H](O)[C@@H](O)[C@H]2O)[C@@H](C)O)N(C)C1 [LINCOMYCIN]
ABSOLUTE BASOPHIL [1]: 0 CELLS/uL
ABSOLUTE EOSINOPHIL [1]: 0 CELLS/uL
ABSOLUTE LYMPHOCYTE [1]: 15154 CELLS/uL
ABSOLUTE MONOCYTE [1]: 0 CELLS/uL
ABSOLUTE SEGMENTED NEUTROPHIL [1]: 1379.33 CELLS/uL
BASOPHIL [1]: 0%
EOSINOPHIL [1]: 0%
ERYTHROCYTE COUNT [1]: 5.63 x10E6/uL
HEMATOCRIT [1]: 35.37%
HEMOGLOBIN [1]: 14.33 G/DL
LEUKOCYTE COUNT [1]: 16.53 x10E3/uL
LYMPHOCYTE [1]: 91.67%
MEAN CORPUSCULAR HEMOGLOBIN [1]: 25.5 pg
MEAN CORPUSCULAR HEMOGLOBIN CONCENTRATION [1]: 40.53 G/DL
MEAN CORPUSCULAR VOLUME [1]: 62.9 fL
MONOCYTE [1]: 0%
NEUTROPHIL [1]: 8.33%
NUCLEATED RED BLOOD CELLS [1]: 0 /100WBC
PLATELET COUNT [1]: 1331 x10E3/uL
ALANINE AMINOTRANSFERASE [1]: 58.33 u/L
ALBUMIN [1]: 4.13 G/DL
ALKALINE PHOSPHATASE [1]: 343.67 u/L
ASPARTATE AMINOTRANSFERASE [1]: 92.33 u/L
BLOOD UREA NITROGEN [1]: 18.33 mg/dL
CARBON DIOXIDE [1]: 25 mmol/L
CHLORIDE [1]: 100.67 MEQ/L
CHOLESTEROL [1]: 73.67 mg/dL
CREATINE PHOSPHOKINASE [1]: 558 u/L
CREATININE [1]: 0.27 mg/dL
GLUCOSE [1]: 137 mg/dL
LACTATE DEHYDROGENASE [1]: 505.33 u/L
LIPASE [1]: 12 u/L
PHOSPHORUS [1]: 12.77 mg/dL
POTASSIUM [1]: 6.92 MEQ/L
SODIUM [1]: 143.1 MEQ/L
TOTAL BILIRUBIN [1]: 0.17 mg/dL
TOTAL PROTEIN [1]: 6.1 G/DL
URIC ACID [1]: 1.63 mg/dL
ABSOLUTE BASOPHIL [2]: 0 CELLS/uL
ABSOLUTE EOSINOPHIL [2]: 46 CELLS/uL
ABSOLUTE LYMPHOCYTE [2]: 14091.33 CELLS/uL
ABSOLUTE MONOCYTE [2]: 108.67 CELLS/uL
ABSOLUTE SEGMENTED NEUTROPHIL [2]: 1220.67 CELLS/uL
BASOPHIL [2]: 0%
EOSINOPHIL [2]: 0.33%
ERYTHROCYTE COUNT [2]: 5.49 x10E6/uL
HEMATOCRIT [2]: 34.5%
HEMOGLOBIN [2]: 13.93 G/DL
LEUKOCYTE COUNT [2]: 15.47 x10E3/uL
LYMPHOCYTE [2]: 91%
MEAN CORPUSCULAR HEMOGLOBIN [2]: 25.43 pg
MEAN CORPUSCULAR HEMOGLOBIN CONCENTRATION [2]: 40.4 G/DL
MEAN CORPUSCULAR VOLUME [2]: 63 fL
MONOCYTE [2]: 0.67%
NEUTROPHIL [2]: 8%
NUCLEATED RED BLOOD CELLS [2]: 0 /100WBC
PLATELET COUNT [2]: 1331.67 x10E3/uL
ALANINE AMINOTRANSFERASE [2]: 53.67 u/L
ALBUMIN [2]: 4.23 G/DL
ALKALINE PHOSPHATASE [2]: 358.67 u/L
ASPARTATE AMINOTRANSFERASE [2]: 85.33 u/L
BLOOD UREA NITROGEN [2]: 15.67 mg/dL
CARBON DIOXIDE [2]: 29.67 mmol/L
CHLORIDE [2]: 101 MEQ/L
CHOLESTEROL [2]: 72 mg/dL
CREATINE PHOSPHOKINASE [2]: 274.33 u/L
CREATININE [2]: 0.21 mg/dL
GLUCOSE [2]: 154.67 mg/dL
LACTATE DEHYDROGENASE [2]: 216.67 u/L
LIPASE [2]: 9.67 u/L
PHOSPHORUS [2]: 12.97 mg/dL
POTASSIUM [2]: 7.32 MEQ/L
SODIUM [2]: 144.13 MEQ/L
TOTAL BILIRUBIN [2]: 0.2 mg/dL
TOTAL PROTEIN [2]: 5.83 G/DL
URIC ACID [2]: 2.13 mg/dL
ABSOLUTE BASOPHIL [3]: 0 CELLS/uL
ABSOLUTE EOSINOPHIL [3]: 0 CELLS/uL
ABSOLUTE LYMPHOCYTE [3]: 14059.67 CELLS/uL
ABSOLUTE MONOCYTE [3]: 0 CELLS/uL
ABSOLUTE SEGMENTED NEUTROPHIL [3]: 1173.67 CELLS/uL
BASOPHIL [3]: 0%
EOSINOPHIL [3]: 0%
ERYTHROCYTE COUNT [3]: 5.56 x10E6/uL
HEMATOCRIT [3]: 34.53%
HEMOGLOBIN [3]: 13.97 G/DL
LEUKOCYTE COUNT [3]: 15.23 x10E3/uL
LYMPHOCYTE [3]: 92.33%
MEAN CORPUSCULAR HEMOGLOBIN [3]: 25.1 pg
MEAN CORPUSCULAR HEMOGLOBIN CONCENTRATION [3]: 40.43 G/DL
MEAN CORPUSCULAR VOLUME [3]: 62.13 fL
MONOCYTE [3]: 0%
NEUTROPHIL [3]: 7.67%
NUCLEATED RED BLOOD CELLS [3]: 0 /100WBC
PLATELET COUNT [3]: 1194.33 x10E3/uL
ALANINE AMINOTRANSFERASE [3]: 57.33 u/L
ALBUMIN [3]: 4.37 G/DL
ALKALINE PHOSPHATASE [3]: 326 u/L
ASPARTATE AMINOTRANSFERASE [3]: 107.67 u/L
BLOOD UREA NITROGEN [3]: 17 mg/dL
CARBON DIOXIDE [3]: 28 mmol/L
CHLORIDE [3]: 100.33 MEQ/L
CHOLESTEROL [3]: 76.67 mg/dL
CREATINE PHOSPHOKINASE [3]: 786.33 u/L
CREATININE [3]: 0.23 mg/dL
GLUCOSE [3]: 160.67 mg/dL
LACTATE DEHYDROGENASE [3]: 134.33 u/L
LIPASE [3]: 9 u/L
PHOSPHORUS [3]: 12.5 mg/dL
POTASSIUM [3]: 6.98 MEQ/L
SODIUM [3]: 144.77 MEQ/L
TOTAL BILIRUBIN [3]: 0.17 mg/dL
TOTAL PROTEIN [3]: 6.33 G/DL
URIC ACID [3]: 2.3 mg/dL
